ChEMBL document CHEMBL1201862, “PubChem BioAssay data set” (2004)
Activity calls are given as the source filed them.

Experiments:
[1] = ARNT/TACC3 interaction disruptors, potency, confirmation, biochemical, AlphaScreen, cherry-picked samples (AID 651703); format: functional, Homo sapiens;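 also: His-tagged ARNT PAS-B domain paired with GST-TACC3 E629A dimer coactivator fragment; potency of inhibitors that break up the complex and lower AlphaScreen signal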
Caspase-3 = biological target: T1, Caspase-3 (Homo sapiens, UniProt P42574); format: functional;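 also: Dose-response selectivity test against caspase-3 for candidate inhibitors of sentrin-specific proteases (SENPs)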
T1 sequence (P42574 whole entry): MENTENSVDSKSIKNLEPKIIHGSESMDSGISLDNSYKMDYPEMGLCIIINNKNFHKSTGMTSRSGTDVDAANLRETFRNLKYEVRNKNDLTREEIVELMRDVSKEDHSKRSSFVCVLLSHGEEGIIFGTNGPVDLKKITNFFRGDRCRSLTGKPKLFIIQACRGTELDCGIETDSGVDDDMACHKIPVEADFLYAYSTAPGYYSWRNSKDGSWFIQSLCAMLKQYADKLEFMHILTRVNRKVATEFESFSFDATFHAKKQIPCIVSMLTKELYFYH

[2] = biological target: T2, Sentrin-specific protease 7 (Homo sapiens, UniProt Q9BQF6); format: functional;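 also: Luminescence-based dose-response confirmation of ultra-high-throughput screening hits, measuring inhibition of SENP7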
T2 sequence (Q9BQF6 whole entry): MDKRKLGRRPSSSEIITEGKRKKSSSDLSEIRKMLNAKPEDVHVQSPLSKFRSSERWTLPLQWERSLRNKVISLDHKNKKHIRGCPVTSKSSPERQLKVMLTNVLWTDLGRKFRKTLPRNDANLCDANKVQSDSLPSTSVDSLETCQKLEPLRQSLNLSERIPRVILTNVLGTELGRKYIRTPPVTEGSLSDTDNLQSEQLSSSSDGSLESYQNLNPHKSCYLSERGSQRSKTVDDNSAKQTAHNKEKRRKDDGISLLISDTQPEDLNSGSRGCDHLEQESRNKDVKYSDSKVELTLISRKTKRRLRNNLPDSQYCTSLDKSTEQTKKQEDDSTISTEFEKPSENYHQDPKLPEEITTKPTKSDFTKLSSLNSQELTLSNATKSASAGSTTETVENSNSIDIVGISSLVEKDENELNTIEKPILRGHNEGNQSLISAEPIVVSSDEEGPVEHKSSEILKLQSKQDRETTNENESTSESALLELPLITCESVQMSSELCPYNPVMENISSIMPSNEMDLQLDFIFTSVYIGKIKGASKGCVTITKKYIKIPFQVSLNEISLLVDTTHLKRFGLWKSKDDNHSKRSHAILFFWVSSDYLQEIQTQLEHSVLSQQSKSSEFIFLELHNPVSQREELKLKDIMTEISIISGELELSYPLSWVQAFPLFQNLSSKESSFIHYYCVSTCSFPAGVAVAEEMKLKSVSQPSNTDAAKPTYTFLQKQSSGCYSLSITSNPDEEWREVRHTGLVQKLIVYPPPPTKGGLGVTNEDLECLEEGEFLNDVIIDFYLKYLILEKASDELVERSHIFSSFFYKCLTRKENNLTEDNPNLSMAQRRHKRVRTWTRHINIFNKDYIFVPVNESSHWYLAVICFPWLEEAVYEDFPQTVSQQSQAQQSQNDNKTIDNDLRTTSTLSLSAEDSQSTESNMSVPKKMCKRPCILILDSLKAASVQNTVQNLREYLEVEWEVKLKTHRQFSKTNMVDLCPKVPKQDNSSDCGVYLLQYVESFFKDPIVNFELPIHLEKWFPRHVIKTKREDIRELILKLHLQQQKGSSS

[3] = biological target: T3, Sentrin-specific protease 6 (Homo sapiens, UniProt Q9GZR1); format: functional;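 also: Luminescence-based dose-response confirmatory assay of SENP6 inhibition, following up an ultra-high-throughput screen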
T3 sequence (Q9GZR1 whole entry): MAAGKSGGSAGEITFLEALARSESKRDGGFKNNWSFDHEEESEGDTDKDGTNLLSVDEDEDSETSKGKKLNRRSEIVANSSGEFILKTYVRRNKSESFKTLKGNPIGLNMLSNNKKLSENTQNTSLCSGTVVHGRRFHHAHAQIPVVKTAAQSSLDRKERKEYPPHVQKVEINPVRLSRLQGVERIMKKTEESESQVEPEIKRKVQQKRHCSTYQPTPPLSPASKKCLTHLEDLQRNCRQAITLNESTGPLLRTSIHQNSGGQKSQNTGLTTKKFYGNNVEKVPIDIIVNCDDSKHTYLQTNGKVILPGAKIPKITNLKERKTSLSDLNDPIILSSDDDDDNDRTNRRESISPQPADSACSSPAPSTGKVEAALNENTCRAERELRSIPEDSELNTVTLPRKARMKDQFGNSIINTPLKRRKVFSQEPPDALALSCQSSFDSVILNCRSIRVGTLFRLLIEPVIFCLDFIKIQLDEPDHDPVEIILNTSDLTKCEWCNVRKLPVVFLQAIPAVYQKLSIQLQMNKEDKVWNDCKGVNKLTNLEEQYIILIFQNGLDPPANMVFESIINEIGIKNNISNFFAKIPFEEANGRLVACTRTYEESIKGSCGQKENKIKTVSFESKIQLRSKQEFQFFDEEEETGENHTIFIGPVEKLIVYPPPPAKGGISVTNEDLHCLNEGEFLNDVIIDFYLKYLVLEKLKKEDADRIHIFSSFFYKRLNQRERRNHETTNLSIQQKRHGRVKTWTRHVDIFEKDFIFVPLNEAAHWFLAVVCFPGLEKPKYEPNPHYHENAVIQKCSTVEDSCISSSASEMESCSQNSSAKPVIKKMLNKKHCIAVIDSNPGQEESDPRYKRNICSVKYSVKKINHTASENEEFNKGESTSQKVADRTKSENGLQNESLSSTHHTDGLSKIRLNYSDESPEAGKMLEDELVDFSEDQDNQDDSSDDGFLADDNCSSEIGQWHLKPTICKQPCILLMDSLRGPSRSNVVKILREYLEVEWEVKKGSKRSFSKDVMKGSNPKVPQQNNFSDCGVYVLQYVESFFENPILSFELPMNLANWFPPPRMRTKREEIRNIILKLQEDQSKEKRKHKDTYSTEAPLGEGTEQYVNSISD

[4] = biological target: T4, Sentrin-specific protease 8 (Homo sapiens, UniProt Q96LD8); format: functional;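 also: luminescence read-out of SENP8 inhibition, dose-response confirmation following an ultra-high-throughput screen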
T4 sequence (Q96LD8 whole entry): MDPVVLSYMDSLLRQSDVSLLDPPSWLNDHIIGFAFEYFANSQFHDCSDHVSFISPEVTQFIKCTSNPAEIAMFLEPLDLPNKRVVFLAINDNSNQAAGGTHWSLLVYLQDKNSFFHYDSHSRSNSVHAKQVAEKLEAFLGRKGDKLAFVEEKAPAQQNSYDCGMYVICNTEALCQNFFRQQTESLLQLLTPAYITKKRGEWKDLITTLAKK

H9c2 = assay: cells; format: functional, cell-based; conditions: Rattus norvegicus, H9c2, Myocardium;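 also: confirmatory concentration-response retest of ultra-high-throughput screening hits for modulation of myocardial damage; cell death induced by hydrogen peroxide oxidative stress; compound pretreatment for 60 min then peroxide exposure for 2 h; potency is for protecting the cells against peroxide damage rather than for killing them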
[5] = biological target: T5, Carboxy-terminal domain RNA polymerase II polypeptide A small phosphatase 1 (Homo sapiens, UniProt Q9GZU7); assay: inhibitors of CTDSP1, concentration-response testing, biochemical assay, absorbance-based, actives from ultra-high-throughput screening (AID 540297); format: functional
T5 sequence (Q9GZU7 whole entry): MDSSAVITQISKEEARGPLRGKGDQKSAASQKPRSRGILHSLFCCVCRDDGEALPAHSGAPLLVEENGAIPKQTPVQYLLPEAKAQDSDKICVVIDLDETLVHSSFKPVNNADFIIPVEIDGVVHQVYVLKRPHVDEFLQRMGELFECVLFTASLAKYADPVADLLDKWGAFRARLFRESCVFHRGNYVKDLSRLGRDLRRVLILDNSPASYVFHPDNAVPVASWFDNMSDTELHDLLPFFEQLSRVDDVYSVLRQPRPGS

[6] = biological target: DNA (cytosine-5)-methyltransferase 1 (Homo sapiens, UniProt P26358); assay: DNMT1 methyltransferase inhibitors, confirmation, biochemical, fluorescent molecular beacon (AID 602386); format: functional
Chain of DNA (cytosine-5)-methyltransferase 1 (P26358 whole entry): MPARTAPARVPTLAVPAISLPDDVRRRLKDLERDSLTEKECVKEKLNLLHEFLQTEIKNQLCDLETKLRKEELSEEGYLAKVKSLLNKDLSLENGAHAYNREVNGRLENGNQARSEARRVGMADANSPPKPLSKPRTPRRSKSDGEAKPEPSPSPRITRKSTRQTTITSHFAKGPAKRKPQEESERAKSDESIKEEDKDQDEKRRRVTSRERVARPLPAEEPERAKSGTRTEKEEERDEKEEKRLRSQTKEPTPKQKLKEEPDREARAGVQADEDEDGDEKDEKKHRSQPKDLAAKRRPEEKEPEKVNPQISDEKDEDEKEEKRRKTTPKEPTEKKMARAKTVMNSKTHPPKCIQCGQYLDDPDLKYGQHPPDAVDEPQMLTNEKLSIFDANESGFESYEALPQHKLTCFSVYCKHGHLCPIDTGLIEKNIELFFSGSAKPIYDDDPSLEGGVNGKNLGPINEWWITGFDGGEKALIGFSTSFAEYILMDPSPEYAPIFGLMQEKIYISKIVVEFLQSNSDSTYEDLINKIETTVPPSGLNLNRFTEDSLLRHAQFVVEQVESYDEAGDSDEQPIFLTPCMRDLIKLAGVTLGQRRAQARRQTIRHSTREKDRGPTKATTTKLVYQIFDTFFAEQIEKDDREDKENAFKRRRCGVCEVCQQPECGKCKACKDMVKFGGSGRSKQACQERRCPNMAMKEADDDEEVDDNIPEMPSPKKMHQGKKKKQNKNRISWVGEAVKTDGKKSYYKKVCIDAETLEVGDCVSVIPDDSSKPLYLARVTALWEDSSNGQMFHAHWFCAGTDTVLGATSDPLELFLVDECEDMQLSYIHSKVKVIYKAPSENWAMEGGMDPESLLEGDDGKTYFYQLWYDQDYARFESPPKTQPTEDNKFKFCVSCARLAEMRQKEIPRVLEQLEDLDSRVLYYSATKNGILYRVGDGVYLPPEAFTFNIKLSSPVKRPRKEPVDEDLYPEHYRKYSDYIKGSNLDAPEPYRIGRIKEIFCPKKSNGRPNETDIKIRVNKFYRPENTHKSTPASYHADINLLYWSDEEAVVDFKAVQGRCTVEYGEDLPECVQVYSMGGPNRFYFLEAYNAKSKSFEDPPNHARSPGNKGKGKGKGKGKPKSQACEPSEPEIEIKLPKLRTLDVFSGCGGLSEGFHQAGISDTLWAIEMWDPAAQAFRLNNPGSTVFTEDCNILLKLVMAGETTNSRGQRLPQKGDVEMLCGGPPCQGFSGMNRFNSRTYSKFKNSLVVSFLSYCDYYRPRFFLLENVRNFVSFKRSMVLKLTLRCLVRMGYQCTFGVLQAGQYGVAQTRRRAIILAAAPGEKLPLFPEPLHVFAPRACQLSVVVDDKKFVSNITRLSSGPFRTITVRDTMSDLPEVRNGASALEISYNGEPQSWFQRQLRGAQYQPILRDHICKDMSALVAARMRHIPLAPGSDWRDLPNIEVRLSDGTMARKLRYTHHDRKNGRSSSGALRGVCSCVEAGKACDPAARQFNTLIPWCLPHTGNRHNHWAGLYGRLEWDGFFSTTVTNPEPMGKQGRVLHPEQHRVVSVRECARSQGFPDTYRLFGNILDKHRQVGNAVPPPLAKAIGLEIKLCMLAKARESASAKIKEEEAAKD

[7] = HEp-2 cell cytotoxicity, dose response, cytotoxicity control for RSV inhibitor project, HTS (AID 2410); format: functional; conditions: human respiratory syncytial virus
[8] = Luminescence Cell-Based Dose Retest to Confirm Inhibitors of Cancer Stem Cells. [Related pubchem assays (depositor defined):AID2717, AID2721]; format: functional; conditions: Homo sapiens
[9] = cytotoxicity in HMLE control line with eGFP shRNA, dose response, counter-screen for HMLE_sh_ECad selective toxicity project, cell-based, HMLE_sh_eGFP, luminescence (AID 463074); format: functional, Homo sapiens;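 also: HMLE human mammary epithelial cells expressing control shRNA against eGFP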
[10] = miR-122 activators in hepatoma reporter cells, dose response, cell-based, Huh7 psiCHECK-miR122, Renilla luciferase, cherry-picked (AID 651956); format: functional;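 also: huh7 hepatoma cells stably carrying a psiCHECK-2 miR-122 sensor plasmid; renilla luciferase signal reporting endogenous miR-122 activity after 48 h compound exposure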
[11] = biological target: Induced myeloid leukemia cell differentiation protein Mcl-1 (Homo sapiens, UniProt Q07820); format: functional
Chain of Induced myeloid leukemia cell differentiation protein Mcl-1 (Q07820 whole entry): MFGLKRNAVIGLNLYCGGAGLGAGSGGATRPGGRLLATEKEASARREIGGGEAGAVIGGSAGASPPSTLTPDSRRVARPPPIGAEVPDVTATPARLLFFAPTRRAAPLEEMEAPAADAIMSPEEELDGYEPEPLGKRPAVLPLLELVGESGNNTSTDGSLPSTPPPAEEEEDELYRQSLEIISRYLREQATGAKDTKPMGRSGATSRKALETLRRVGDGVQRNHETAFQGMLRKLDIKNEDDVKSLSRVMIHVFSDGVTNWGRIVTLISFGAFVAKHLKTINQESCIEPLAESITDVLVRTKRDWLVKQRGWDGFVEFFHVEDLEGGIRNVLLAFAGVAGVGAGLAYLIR

[12] = AlphaScreen signal interference compounds, dose response, artefact control for ARNT-TACC3 interaction inhibitor project, biochemical, luminescence, cherry-pick (AID 651705); format: functional;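 also: AlphaScreen bead proximity signal that flags compounds interfering with the detection technology; potency reflects signal decrease which marks the compound as an assay artifact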
[13] = inhibitors of intracellular T. cruzi replication, confirmation, NIH3T3 host cells, beta-gal luminescence (AID 2044); format: functional, cell-based;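 also: intracellular parasites grown in NIH/3T3 mouse fibroblasts as host cells; luminescent beta-galactosidase reporter signal from transgenic T. cruzi replicating inside host cells; inhibitors lower the luminescence signal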
[14] = cytotoxicity toward NIH3T3 fibroblasts, dose response, counter-screen, cell-based, ATP luminescence, mouse fibroblasts (AID 2010); format: functional;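 also: cells exposed to compound for about 90 hours before reading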
[15] = A cytotoxicity screen of small molecule inhibitors of the PhoP region in Salmonella typhi identified in the primary screen. [Related pubchem assays: 1850, 1864, 1985 ]; format: functional
[16] = system: Streptococcus sp. 'group A'; assay: growth inhibition of control SK(-) GAS strain, dose response, counter-screen for streptokinase expression inhibitor project, luminescence, kanamycin, BacTiterGlo, confirmation (AID 1900); format: functional, organism-based
Streptokinase A = biological target: T6, Streptokinase A (Streptococcus pyogenes serotype M1, UniProt P10520); assay: S. pyogenes streptokinase expression inhibitors, potency, dose response, plasminogen activation absorbance, OD405 (AID 1914); format: functional, Streptococcus pyogenes M1 GAS;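 also: secreted streptokinase activity via plasminogen activation per viability signal from cell pellet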
T6 sequence (P10520 whole entry): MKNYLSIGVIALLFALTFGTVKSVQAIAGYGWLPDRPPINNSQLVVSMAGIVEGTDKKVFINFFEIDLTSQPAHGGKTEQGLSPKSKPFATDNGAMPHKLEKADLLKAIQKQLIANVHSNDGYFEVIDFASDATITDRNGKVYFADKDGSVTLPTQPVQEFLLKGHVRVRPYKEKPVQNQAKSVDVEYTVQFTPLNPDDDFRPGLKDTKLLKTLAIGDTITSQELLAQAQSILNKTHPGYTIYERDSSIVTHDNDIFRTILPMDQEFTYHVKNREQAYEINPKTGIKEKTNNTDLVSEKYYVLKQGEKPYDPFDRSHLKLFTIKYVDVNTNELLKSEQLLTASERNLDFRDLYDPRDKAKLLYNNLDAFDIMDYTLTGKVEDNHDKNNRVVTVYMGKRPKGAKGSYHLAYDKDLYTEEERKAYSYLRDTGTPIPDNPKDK

Streptococcus = assay: Group A Streptococcus viability loss, dose response, counter-screen for streptokinase expression inhibitor project, luminescence, BacTiterGlo (AID 1915); format: functional, organism-based;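 also: potency for reduction of bacterial viability or growth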
[17] = THP-1 cell cytotoxicity, dose response, cytotoxicity control for non-replicating M. tuberculosis project (AID 489025); format: functional
[18] = Vero E6 cell cytotoxicity, dose response, cytotoxicity control for non-replicating M. tuberculosis project, secondary assay (AID 492998); format: functional, VeroE6; conditions: Vero C1008
cells = format: functional
[19] = intracellular Trypanosoma cruzi inhibitors in host cells – cell-based, plate reader, cherry-pick samples, set 3, dose response (AID 651818); format: functional;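 also: compounds incubated with infected cells for about four days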

COCCn1c(N)c(C(=O)NCc2cccs2)c2nc3ccccc3nc21
AC50 [1]: 130 µM (active)

Cc1c(Cl)cnc(NC(=O)COC(=O)c2ccc([N+](=O)[O-])s2)c1Cl
IC50 (Caspase-3): 11.1 µM (active) | IC50 [2]: 10.6 µM (active) | IC50 [3]: 5.92 µM (active) | IC50 [4]: 6.85 µM (active) | IC50 (H9c2): > 79 µM (inactive)

O=C1CC(=O)NC(SCC(=O)Nc2ccccc2[N+](=O)[O-])=N1
IC50 [5]: 4.04 µM (active) | IC50 [6]: 8.51 µM (active)

O=C(O)c1cccc(-c2nnn(Cc3ccccc3Cl)n2)c1
IC50 (Caspase-3): 15.6 µM (active) | IC50 [2]: > 100 µM (inactive) | IC50 [3]: > 100 µM (inactive) | IC50 [4]: 10.9 µM (active)

COc1ccc(-c2c(C)nn3c(N)c(-c4ccccc4)cnc23)cc1OC
CC50 [7]: 43.3 µM (active) | AC50 [8]: 11.9 µM (active) | AC50 [9]: 34.8 µM (active) | AC50 [10]: 6.96 µM (active)

O=C(COC(=O)c1ccc(NS(=O)(=O)c2cccs2)cc1)NCc1ccco1
IC50 [11]: 3.09 µM (active) | IC50 [6]: 9.6 µM (active)

O=C(CSc1ccc2nnc(-c3ccccn3)n2n1)Nc1ccccc1C(F)(F)F
AC50 [12]: 136 µM (active)

Cc1ccc(C(=O)COC(=O)c2cccc(NC(=O)c3ccc([N+](=O)[O-])cc3[N+](=O)[O-])c2)cc1
EC50 [13]: 1.11 µM (active) | EC50 [14]: > 60 µM (not active) | IC50 (Caspase-3): 22.2 µM (active) | IC50 [2]: 5.97 µM (active) | IC50 [3]: 4.89 µM (active) | IC50 [4]: > 100 µM (inactive)

O=C(Nc1nnc(-c2ccccn2)o1)c1cccc(Cl)c1
EC50 [15]: > 50 µM (active) | EC50 [16]: 2.42 µM (active) | EC50 (Streptokinase A): > 150 µM (not active) | EC50 (Streptococcus): 16.5 µM (active) | CC50 [17]: > 40 µM (active) | CC50 [18]: > 20 µM (active) | IC50 (cells): 3.73 µM (active) | AC50 [12]: 89.6 µM (active)

CCCCCCCCC(=O)c1c(OC)oc(C=O)cc1=O
IC50 [6]: 8.25 µM (active)

C[C@H]1CN([C@@H](C)CO)C(=O)c2cccc(NC(=O)Nc3cccc4ccccc34)c2O[C@H]1CN(C)S(=O)(=O)c1cccs1
AC50 [19]: 4.61 µM (active)

C[C@@H]1CN([C@@H](C)CO)C(=O)c2cccc(NC(=O)Nc3ccc4c(c3)OCO4)c2O[C@H]1CN(C)Cc1ccc(C(=O)Nc2ccccc2N)cc1
AC50 [19]: 1.04 µM (active)

C[C@H]1CN([C@@H](C)CO)C(=O)c2cccc(NC(=O)CCCCCC(=O)Nc3ccccc3N)c2O[C@@H]1CN(C)CC1CC1
AC50 [19]: 2.88 µM (active)

CCOC(=O)c1ccccc1N/C=C/C(=O)c1ccccc1
IC50 (Caspase-3): 33.1 µM (active) | IC50 [2]: 9.9 µM (active) | IC50 [3]: 16.2 µM (active) | IC50 [4]: 18.7 µM (active)
